Experimental data from patent US9820997B2, “Pharmaceutical composition for treating disease associated with demyelination of neurons and method of using the pharmaceutical composition” (Samsung Electronics Co., Ltd., priority 2014, dated 2017).

What was measured:
PMP22 = PMP22 protein amount in PMP22-overexpressing SH-SY5Y cells by Western blot; format: cell-based, human; conditions: for amount of the PMP22 protein compared to negative control and positive control (AA): FIGS. 5A/5B
Procedure: (§1) SH-SY5Y cells were inoculated at a concentration of 10^5 cells/ml in each well of a 12-well plate including 2 ml of a DMEM medium containing 10% FBS, 100 units/ml of penicillin, and 100 units/ml of streptomycin and incubated until the cell density was about 60% to about 65% in a 5% CO2 incubator at 37°. Then, dapsone (4,4′-diaminodiphenylsulfone, DDS) (available from Sigma), MADDS (available from Sigma), SSZ (available from Sigma), and SCM (available from Sigma) were respectively added to the wells at various concentrations and incubated for 24 hours under the same conditions. Vitamin C (ascorbic acid, AA) (available from Sigma) was used as the positive control group. Vitamin C is known as having an effect of treating peripheral neuropathy by using a cAMP modulator. SH-SY5Y cells are a human-derived cell line used in scientific research. The original cell line, SK-N-SH from which SH-SY5Y cells were subcloned, was isolated from a bone marrow biopsy taken from a person with neuroblastoma. SH-SY5Y cells are often used as in vitro models of neuronal function and differentiation. The SH-SY5Y cells used herein have been modified to consistently overexpress the human PMP22 gene by lentiviral mediated integration of PMP22 into a chromosome.
After removing 2 ml of the culture medium, the SH-SY5Y cells were washed with phosphate buffered saline (PBS), and a lysis solution, 0.5% Triton X-100, in PBS was added thereto. Then, cells were collected using a scraper, left in ice for 30 minutes, and then, the cells were disrupted. Using a bicinchoninic acid (BCA) protein assay, the amount of protein in each sample was normalized to 1 ug/ul. SDS-PAGE (Invitrogen) was performed on the sample, and then Western blotting was performed with rabbit anti-PMP22 (Novus biological) and rabbit anti-actin (Sigma) primary antibodies, and an anti-rabbit secondary antibody.

PMP22 mRNA = PMP22 mRNA expression in SH-SY5Y cells by RT-PCR; format: cell-based, human; conditions: according to DDS concentration; FIG. 2
Procedure: as §1, with “SH-SY5Y cells are often used as in vitro models of neuronal function and differentiation. The SH-SY5Y cells used herein have been modified to consistently overexpress the human PMP22 gene by lentiviral mediated integration of PMP22 into a chromosome.” left out
Also, RNA from treated and untreated SH-SY5Y cells was extracted by with Trizol (Invitrogen). PM22 gene expression was analyzed by using a one-step RT-PCR kit (Qiagen), whereby the extracted RNA was mixed with a PMP22 gene specific primer set of SEQ ID NOS: 1 and 2, and a real time-PCR (RT-PCR) was performed to confirm the degree of mRNA expression.

Zebrafish (Danio rerio) = assay: Remyelination in MTZ-demyelinated genetically engineered zebrafish, confocal fluorescence; format: in vivo; conditions: demyelinated central and peripheral nervous system; 10 uM
[1] = system: Tr-J mice (CMT mouse model); assay: Rotarod test in mice; format: in vivo; conditions: 50 mg/kg per day orally for 2 months
[2] = system: Tr-J mice (CMT mouse model); assay: Sciatic nerve morphology by toluidine blue staining and g-ratio; format: in vivo; conditions: 50 mg/kg, 2 months
From the text: In this example, the effect of sulfasalzine on the CMT was investigated using Trembler-J (Tr-J) mice. The Tr-J mouse has a missense mutation in the murine peripheral myelin protein-22 gene (Pmp22). Pmp22 mutations are believed to cause the neuropathies of Charcot-Marie-tooth disease in humans (Nature 356, 241-244 (19 Mar. 1992); doi:10.1038/356241a0). Two month old heterozygous Tr^J mice in the C57BL/6J background were obtained from Jackson Laboratories (Bar Harbor, Me.). Matings between Tr-J heterozygous females and males in the C57BL/6 genetic background were implemented to generate Tr-J heterozygous and wild-type controls.
Sulfasalazine was obtained from Sigma-Aldrich, St. Louis. Sulfasalazine (50 mg/kg daily) was administered orally to female mice (n=4-5 per group) via sulfasalazine-containing drinking water. Before sulfasalazine oral intervention, weight and daily water intake of the mice was measured to determine the dose of sulfasalazine. Each Tr-J and WT mice were administered sulfasalazine drinking water for 2 months (50 mg/kg daily).
After 2 months oral intervention, sciatic nerves were harvested from mice (WT+/−50 mg/kg sulfasalazine and Trembler J+/−50 mg/kg sulfasalazine). Nerves were fixed in 2% (w/v) glutaraldehyde in 0.1 M phosphate buffer (pH 7.4) for 4 h, followed by washing with 0.1 M phosphate buffer. […] Sample sections were evaluated using light microscopy.

[3] = system: Tr-J mice (CMT mouse model); assay: Twitch/tetanus isometric force of soleus muscle; format: in vivo; conditions: 50 mg/kg, 2 months, vs placebo-treated mice, FIG. 11

Nc1ccc(S(=O)(=O)c2ccc(N)cc2)cc1 [DDS, 4,4′-diaminodiphenylsulfone]
amount of the PMP22 protein compared to negative control and positive control (AA) (PMP22): significantly decreased | amount of PMP22 protein (PMP22; as the concentration of DDS increases, 24 hours, n=4, FIGS. 1A/1B): decreased | expression of PM22 mRNA (PMP22 mRNA): did not show a significant difference | effect on the promotion of remyelination (Zebrafish (Danio rerio)): confirmed

CC(=O)Nc1ccc(S(=O)(=O)c2ccc(N)cc2)cc1 [MADDS, mono N-acetyldapsone]
amount of the PMP22 protein compared to negative control and positive control (AA) (PMP22): significantly decreased | effect on the promotion of remyelination (Zebrafish (Danio rerio)): confirmed

CC(=O)NS(=O)(=O)c1ccc(N)cc1 [SCM, N-[(4-aminophenyl)sulfonyl]acetamide]
amount of the PMP22 protein compared to the control group (PMP22; vs DMSO control, FIGS. 4A/4B): decreased | effect on the promotion of remyelination (Zebrafish (Danio rerio)): confirmed

O=C(O)c1cc(/N=N/c2ccc(S(=O)(=O)Nc3ccccn3)cc2)ccc1O [SSZ]
effect on the promotion of remyelination (Zebrafish (Danio rerio)): confirmed | time on rod ([1]; Tr-J mice, vs placebo-treated Tr-J mice): significantly increased | time on rod ([1]; WT mice, vs placebo-treated WT mice): decreased | g-ratio of sciatic nerve ([2]; Tr-J mice, vs vehicle treated Tr-J mice, FIG. 10C): significantly lower | number of myelinated axons in sciatic nerve ([2]; Tr-J mouse, vs vehicle-treated Tr-J mouse, FIG. 10A): significantly increased | tetanus contraction in Soleus tendon [3]: significantly increased | twitch contraction in Soleus tendon [3]: significantly increased
